Ten compounds from patent US7166609B2, “Pyrimidine-4,6-dicarboxylic acid diamides for selectively inhibiting collagenases” (Sanofi-Aventis Deutschland GmbH, priority 2002, dated 2007) can be followed below.

Where two headings read alike, the source gives them in different places.

The target of this experiment is T1, catalytic domain of human collagenase 3 (MMP-13) (Homo sapiens, UniProt P45452).
T1 construct: Determining the enzyme activity of the catalytic domain of human collagenase 3 (MMP-13); purchased INVITEK, Berlin 30 100 803
Nature of the experiment: Enzyme activity of the catalytic domain of human collagenase 3 (MMP-13), fluorogenic substrate. It counts as biochemical. The method, then: Determining the enzyme activity of the catalytic domain of human collagenase 3 (MMP-13).
Activating the proenzyme:
2 parts by volume of proenzyme are incubated with 1 part by volume of APMA solution at 37° C. for 1.5 hours. The APMA solution is prepared from a 10 mmol/L solution of p-aminophenylmercuric acetate in 0.1 mmol/L NaOH by diluting with 3 parts by volume of tris/HCl buffer, pH 7.5 (see below). The pH is adjusted to between 7.0 and 7.5 by adding 1 mmol/L HCl. After the enzyme has been activated, it is diluted to a concentration of 1.67 μg/ml using the tris/HCl buffer.
In order to measure the enzyme activity, 10 μL of enzyme solution are incubated for 15 minutes with 10 μL of a 3% (v/v) buffered solution of dimethyl sulfoxide (reaction 1). In order to measure the enzyme inhibitor activity, 10 μL of enzyme solution are incubated with 10 μL of a 3% (v/v) buffered solution of dimethyl sulfoxide containing the enzyme inhibitor (reaction 2).
In the case of both reaction 1 and reaction 2, the enzyme reaction is monitored by fluorescence spectroscopy (328 nm (extinction)/393 nm (emission)) after adding 10 μL of a 3% (v/v) aqueous solution of dimethyl sulfoxide containing 0.75 mmol of the substrate/L.
The enzyme activity is depicted as increase in extinction/minute.
The effect of the inhibitor is calculated as a percentage inhibition using the following formula: % inhibition=100−[(increase in extinction/minute in reaction 2)/(increase in extinction/minute in reaction 1)×100].
The IC50, i.e. the inhibitor concentration which is required for inhibiting the enzyme activity by 50%, is determined graphically by plotting the percentage inhibitions at different inhibitor concentrations.
The buffer solution contains 0.05% Brij (Sigma, Deisenhofen, Germany) and 0.1 mol of tris/HCl/L, 0.1 mol of NaCl/L and 0.01 mol of CaCl2/L (pH=7.5). The enzyme solution contains 1.67 μg of the enzyme domain/mL.
The substrate solution contains 0.75 mmol/L of the fluorogenic substrate (7-methoxycoumarin-4-yl)acetyl-Pro-Leu-Gly-Leu-3-(2′,4′-dinitrophenyl)-L-2,3-diaminopropionyl-Ala-Arg-NH2 (Bachem, Heidelberg, Germany).

[1] abbreviates: catalytic domain, activated proenzyme, pH 7.5, read-out: IC50 MMP13.

In general, IC50 refers to the concentration that gives 50% inhibition. Regarding `O=C(NCc1ccc(C(=O)N2CCOCC2)cc1)c1cc(C(=O)NCc2ccc(F)c(Cl)c2)ncn1` [Example 154], the IC50 under setting [1] amounted to 22 nM.
Regarding `O=C(NCc1ccc2c(c1)CCO2)c1cc(C(=O)NCc2cccs2)ncn1` [Example 39], the half-maximal inhibitory concentration (IC50) under setting [1] amounted to 30 nM.
For `O=C1CCN(C(=O)c2ccc(CNC(=O)c3cc(C(=O)NCc4ccc5c(c4)CCO5)ncn3)cc2)CC1` [Example 66], half-maximal inhibition (IC50) was put at 10 nM.
As for `O=C1CN(C(=O)c2ccc(CNC(=O)c3cc(C(=O)NCc4ccc5c(c4)CCO5)ncn3)cc2)CCN1` [Example 74], under setting [1], the IC50 was determined as 30 nM.
Still for that read-out and setting: for `COc1cccc(CNC(=O)c2cc(C(=O)NCc3ccc(NC(=O)NC(=O)C(C)C)cc3)ncn2)c1` [Example 127] the value was 3.3 nM; for `O=C(NCc1ccncc1)c1ccc(CNC(=O)c2cc(C(=O)NCc3ccc4c(c3)CCO4)ncn2)cc1` [Example 82], 30 nM; for `Cc1cc(CNC(=O)c2cc(C(=O)NCc3ccc(C(=O)NC#N)cc3)ncn2)ccc1F` [Example 78], 3 nM.
Regarding `Cc1cc(CNC(=O)c2cc(C(=O)NCc3ccc4c(c3)OCCN4C)ncn2)ccc1F` [Example 112], under setting [1], the IC50 was 45 nM.
For the compound `COc1cccc(CNC(=O)c2cc(C(=O)NCc3ccc(NC(=O)NS(C)(=O)=O)cc3)ncn2)c1` [Example 101], the IC50 under setting [1] came out at 2 nM.
On the same count and under the same terms, next, `O=C(NCc1ccc(C(=O)N2CCC(O)CC2)cc1)c1cc(C(=O)NCc2ccc3c(c2)CCO3)ncn1` [Example 68]: 22 nM.
